Among the test systems are CAKI-1 renal; CCRF-CEM leukemia; MALME-3M melanoma; NCI-H23 lung; NCI-H522 lung; OVCAR-3 ovarian; RXF 393 renal; SF-268 CNS; SN12C renal; U251 CNS.
Experiment in all cases: inhibition of tumour cell growth, NCI panel, 48 h

“And” between values parts separate entries of the source, which are not always exact repeats. Identical values can stand only once.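 Where inhibition never reached the appropriate level, the endpoint shown equals the highest concentration tested. Otherwise, values were interpolated linearly from a five-concentration, 48-hour dose response in 96-well plates. Here, GI50 denotes the concentration required for 50% inhibition of growth. TGI: total growth inhibition.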

Take `COc1c(OC(C)C)cc2cc(O)c(C(=O)NC3Cc4ccc(c(Cl)n4)O[C@@H]4C=C5C#C/C(=C\C#CC6OC56C4OC4CC(C)(O)C(O)C(C)O4)C(OC4CC(O)C(N(C)C)C(C)O4)COC3=O)cc2c1OC` (stereo partly specified): the GI50 in the assay on CAKI-1 renal is 0.897 mg/L; in the assay with CCRF-CEM leukemia, 4.34 µM and 0.0317 µg/mL; with MALME-3M melanoma it was 0.533 mg/L; in the assay with NCI-H23 lung, 6.32 µM and 0.296 µg/mL; in the assay on NCI-H522 lung it was 29.6 µM and 1.25 µg/mL; in the assay on OVCAR-3 ovarian, > 36.3 µM and 21.3 µg/mL. Moreover, the GI50 in the assay with RXF 393 renal is 0.568 mg/L; in the assay with SF-268 CNS, 11.5 µM and 0.838 µg/mL; with SN12C renal it was 17.7 µM and 0.718 µg/mL; in the assay with U251 CNS, 5.61 µM and 0.596 µg/mL. Besides, the TGI in the assay with CAKI-1 renal was > 36.3 µM and 37.5 µg/mL; in the assay on CCRF-CEM leukemia, > 36.3 µM and 5.33 µg/mL; in the assay on MALME-3M melanoma it was > 36.3 µM and 37.5 µg/mL; in the assay with NCI-H23 lung, > 36.3 µM and 1.79 µg/mL; in the assay with NCI-H522 lung, > 36.3 µM and 15.8 µg/mL; in the assay on OVCAR-3 ovarian, > 36.3 µM and 37.5 µg/mL. Besides, the TGI in the assay on RXF 393 renal is > 36.3 µM and 1.92 µg/mL; in the assay with SF-268 CNS, > 36.3 µM and 17.3 µg/mL; with SN12C renal it was > 36.3 µM and 9.82 µg/mL; in the assay with U251 CNS, > 36.3 µM and 9.98 µg/mL.

On to `CCOC(=O)C(Cc1ccc(N(CCCl)CCCl)cc1)NC(=O)C(Cc1ccccc1)NC(C)=O` (stereo unspecified), for which the TGI with CAKI-1 renal was 0.419 µM; with CCRF-CEM leukemia it was 0.213 µM; with NCI-H23 lung it was > 0.304 µM; in the assay with OVCAR-3 ovarian, 0.361 µM; in the assay with RXF 393 renal, 0.259 µM; with SF-268 CNS, > 0.288 µM. Moreover, the values for the TGI in the assay on SN12C renal and in the assay on U251 CNS were > 0.296 µM and > 0.787 µM, respectively.

Consider `CC(=O)OCC(CC[CH2][Sn]([Cl])([Cl])[c]1ccccc1)OC(C)=O` (stereo unspecified), for which the GI50 in the assay on CAKI-1 renal was 14.6 µM; with CCRF-CEM leukemia it was 21.3 µM; in the assay on NCI-H23 lung it was 19.5 µM; with NCI-H522 lung, 41.1 µM; in the assay with OVCAR-3 ovarian it was 20 µM; with RXF 393 renal, 18.5 µM. For the same compound, the GI50 is 18.6 µM with SF-268 CNS, 21 µM in the assay on SN12C renal and 20.4 µM in the assay with U251 CNS. Also, the TGI came out at 30.9 µM in the assay on CAKI-1 renal; 68.6 µM with CCRF-CEM leukemia; 39.4 µM with NCI-H23 lung; 55.6 µM in the assay with NCI-H522 lung; 42.8 µM in the assay on OVCAR-3 ovarian; 34.2 µM in the assay on RXF 393 renal. Further, the figures for the TGI in the assay with SF-268 CNS, with SN12C renal and in the assay on U251 CNS were 33.9 µM, 41 µM and 38.5 µM, respectively.

Turning to `C[P+]1(c2ccccc2)CCCCC1`, the TGI in the assay with CAKI-1 renal, in the assay on CCRF-CEM leukemia, in the assay on MALME-3M melanoma, with NCI-H23 lung, in the assay on OVCAR-3 ovarian and in the assay on RXF 393 renal was > 100 µM in each case. Moreover, the TGI in the assay with SF-268 CNS, in the assay on SN12C renal and in the assay on U251 CNS was > 100 µM throughout.

Consider `COc1ccc(-c2c3c(N)c4c(nc3nc3c2c(C)nn3-c2ccccc2)CCCC4)cc1`, for which the GI50 in the assay on CAKI-1 renal was 3.88 µM; with CCRF-CEM leukemia, 2.18 µM; in the assay with NCI-H522 lung it was 2.91 µM; in the assay with OVCAR-3 ovarian it was 4.17 µM; with RXF 393 renal, 8.48 µM; in the assay with SF-268 CNS it was 5.33 µM. The GI50 in the assay with SN12C renal is 3.72 µM; with U251 CNS it was 1.72 µM. For the same compound, the TGI was found to be 15.9 µM with CAKI-1 renal; 6.86 µM with CCRF-CEM leukemia; 12.2 µM in the assay on NCI-H522 lung; 15.3 µM in the assay on OVCAR-3 ovarian; 26.7 µM in the assay with RXF 393 renal; 19.4 µM with SF-268 CNS. Besides, the results for the TGI in the assay with SN12C renal and in the assay with U251 CNS were 16.1 µM and 3.56 µM, respectively.

`CN(C)CCCn1c2c(c3cc4c(cc3c1=O)OCO4)C(=O)c1ccccc1-2`: the GI50 in the assay with CAKI-1 renal is 3.01 µM; with CCRF-CEM leukemia, 0.192 µM; in the assay on NCI-H23 lung it was 0.231 µM; in the assay with NCI-H522 lung, 4.59 µM; in the assay on OVCAR-3 ovarian, 2.36 µM; with RXF 393 renal, 0.852 µM. Besides, the GI50 in the assay with SF-268 CNS was 13.9 µM; in the assay on SN12C renal, 0.203 µM; in the assay on U251 CNS it was 0.081 µM. For the same compound, the TGI in the assay with CAKI-1 renal is 9.4 µM; with CCRF-CEM leukemia, 3.51 µM; in the assay with NCI-H522 lung it was 35.2 µM; with OVCAR-3 ovarian, 6.46 µM; in the assay with RXF 393 renal it was 8.93 µM; with SF-268 CNS, > 44.4 µM. The TGI came out at 3.16 µM in the assay on SN12C renal and 3.5 µM in the assay with U251 CNS.

On to `COc1ccc2c(c1)C(=O)c1c-2c(=O)n(CCCN(C)C)c2cc(OC)c(OC)cc12`, for which the GI50 is 1.48 µM in the assay with CAKI-1 renal; 0.05 µM in the assay on CCRF-CEM leukemia; 6.48 µM in the assay with NCI-H23 lung; 4.69 µM in the assay with NCI-H522 lung; 13.7 µM in the assay on OVCAR-3 ovarian; 11.2 µM in the assay with RXF 393 renal. Moreover, the GI50 in the assay with SF-268 CNS is 0.427 µM; with SN12C renal, 2.18 µM; in the assay with U251 CNS, 1.23 µM. Besides, the TGI in the assay on CAKI-1 renal is > 100 µM; with CCRF-CEM leukemia it was 12.2 µM; with NCI-H23 lung it was 24.5 µM; in the assay on NCI-H522 lung, 21.6 µM; in the assay on OVCAR-3 ovarian it was 26.9 µM; in the assay on RXF 393 renal it was 23.6 µM. Moreover, the TGI in the assay with SF-268 CNS amounted to 15.2 µM; with SN12C renal, 16.6 µM; with U251 CNS it was 18.9 µM.

Consider `c1ccc2c(CNCCN3CCNCC3)c3ccccc3c(CNCCN3CCNCC3)c2c1`, for which the GI50 is > 100 µM with CAKI-1 renal; 2.3 µM in the assay on CCRF-CEM leukemia; 11.8 µM with MALME-3M melanoma; 16 µM in the assay on NCI-H23 lung; 13 µM in the assay with NCI-H522 lung; 18.9 µM in the assay with OVCAR-3 ovarian. For the same compound, the GI50 in the assay on RXF 393 renal was 25.3 µM; in the assay with SF-268 CNS, 12.4 µM; in the assay with U251 CNS, 14.8 µM. Moreover, the TGI with CAKI-1 renal is > 100 µM; in the assay with CCRF-CEM leukemia, 14.2 µM; in the assay on MALME-3M melanoma it was 30.2 µM; in the assay with NCI-H23 lung, 54.1 µM; with NCI-H522 lung, 35.9 µM; in the assay on OVCAR-3 ovarian, 51.7 µM. In addition, the TGI in the assay on RXF 393 renal was 81.9 µM; in the assay with SF-268 CNS, 33.3 µM; in the assay with U251 CNS, 40.3 µM.

Regarding `Cc1cc2c(c(=O)o1)C1=S(SC(c3ccccc3)=C1)S2` (stereo unspecified), the TGI in the assay on CCRF-CEM leukemia was > 100 µM; in the assay on MALME-3M melanoma it was 86.7 µM; in the assay on NCI-H23 lung it was > 100 µM; in the assay with NCI-H522 lung it was > 100 µM; in the assay with OVCAR-3 ovarian, 75.2 µM; with RXF 393 renal, 50.1 µM. Besides, the TGI in the assay on SF-268 CNS is > 100 µM; in the assay with SN12C renal, > 100 µM; in the assay on U251 CNS, 57.2 µM.

For the compound `CC(C)(C)c1cc(C(=O)O)c2c(c1)C(=O)OC2(c1ccccc1)c1ccccc1C(=O)O` (stereo unspecified), the TGI in the assay with CAKI-1 renal, in the assay on CCRF-CEM leukemia, with MALME-3M melanoma, in the assay with NCI-H23 lung, in the assay on OVCAR-3 ovarian and in the assay with RXF 393 renal was > 100 µM throughout. Also, the TGI in the assay with SF-268 CNS and with SN12C renal was > 100 µM throughout.

With `N#CNC1=NC(N)C(c2nc3ccccc3[nH]2)=C(CCCC(=O)Nc2cccc([N+](=O)[O-])c2)N1` (stereo unspecified), the TGI in the assay with CAKI-1 renal, in the assay with CCRF-CEM leukemia, with MALME-3M melanoma, with NCI-H23 lung, in the assay on NCI-H522 lung and in the assay on OVCAR-3 ovarian was > 100 µM throughout. The TGI with RXF 393 renal, in the assay on SF-268 CNS and in the assay with SN12C renal was > 100 µM each time.

Consider `O=S(=O)(NCCCNc1nccc(-c2c(-c3ccc(F)cc3)nc3sccn23)n1)c1ccc(F)cc1`, for which the GI50 is 7.8 µM in the assay with CAKI-1 renal; 3.91 µM with CCRF-CEM leukemia; 9.06 µM with MALME-3M melanoma; 17.8 µM in the assay with NCI-H23 lung; 10 µM in the assay with NCI-H522 lung; 3.67 µM in the assay on RXF 393 renal. In addition, the GI50 with SF-268 CNS was 20 µM; in the assay on SN12C renal, 9.04 µM; in the assay with U251 CNS it was 8.87 µM. The TGI with CAKI-1 renal is > 100 µM; in the assay with CCRF-CEM leukemia it was > 100 µM; in the assay with MALME-3M melanoma it was 94.4 µM; with NCI-H23 lung, > 100 µM; with NCI-H522 lung, > 100 µM; with RXF 393 renal it was 70.8 µM. Also, the TGI in the assay with SF-268 CNS, in the assay with SN12C renal and in the assay with U251 CNS was > 100 µM throughout.

Turning to `CC1CCC2C(CN(CC3=C(C(F)(F)F)OC4OC5(C)CCC6C(C)CCC3C46OO5)CC3=C(C(F)(F)F)OC4OC5(C)CCC6C(C)CCC3C46OO5)=C(C(F)(F)F)OC3OC4(C)CCC1C32OO4` (stereo unspecified), the GI50 in the assay with CAKI-1 renal was 5.87 µM; in the assay on CCRF-CEM leukemia, 4.8 µM; with MALME-3M melanoma, 6.73 µM; in the assay with NCI-H23 lung, 6.04 µM; in the assay on NCI-H522 lung, 16.2 µM; in the assay with RXF 393 renal, 2.45 µM. The GI50 in the assay on SF-268 CNS is 18.7 µM; with SN12C renal, 18.7 µM; in the assay on U251 CNS, 5.12 µM. Besides, the TGI with CAKI-1 renal is 18.4 µM; in the assay on CCRF-CEM leukemia it was 28 µM; with MALME-3M melanoma, 23 µM; in the assay with NCI-H23 lung, 19.7 µM; in the assay with NCI-H522 lung it was 42.2 µM; with RXF 393 renal, 22.4 µM. Further, the TGI in the assay on SF-268 CNS came out at 48.4 µM; in the assay on SN12C renal, 48.9 µM; with U251 CNS it was 19.2 µM.

Values taken from PubChem BioAssay (NCI).
